Test results taken from patent US5688769A, “Treatment method” (Uclaf; Roussel, priority 1979, dated 1997).

Assays:
ovarian steroidogenosis = experiment: Inhibitory activity on ovarian steroidogenesis in women; assay type: in vivo; details: for reduction of seric levels of progesterone as compared to the controls: typical subject (FIGS. 3A-3D)
Experimental: The inhibitory activity of D Ser (Tbu)^6 or Gly^10 LH-RH ethylamide on ovarian steroidogenosis in women was determined on 6 women aged 26 to 35 years with normal and regular menstrual cycles and without prior endocrinal or gynecological problems. […] […] Daily blood samples were taken between 4 and 6 P.M. to measure seric levels of LH, FSH, progesterone and estradiol which were determined by radioimmuno-logic tests with double antibodies. The antibodies to measure LH and FSH were furnished by the National Pituitory Agency of N.I.H. of Bethesda, Md.
Estradiol and progesterone were measured with highly specific antibodies developed against 7-(O-carboxymethyl)-oxime of estradiol and 12-(O-carboxymethyl)-oxime of progesterone, respectively [3H] 17β-estradiol and ^125 I-progesterone-12-[0-carboxymethyl)-oxime]used as tracers. The serum was extracted with benzene and the steroids were separated with a LH 20 column before the determination. The radioimmunological results were exploited by the program derived from model II of Rodbard and Lewald as in Example 1 and the statistical significance was measured by the multiple level test of Ducan-Kramer of Example 1. The results are shown in the graphs of sheets 1 to 16 of the Figures.

[1] = system: testicular steroidogensis; experiment: Inhibitory activity against testicular steroidogenesis in men in good health, single intranasal dose; assay type: in vivo; details: human, single intranasal dose 500 μg
Experimental: The said product was administered intranasally at a dose of 500 μg in a few drops of distilled water at 8 A.M. on the third day of the test. For 2 days prior to the treatment and for 6 days after the treatment, samples of blood were taken daily at 8 A.M., 3 P.M. and 10 P.M. On the day of administration of the LH-RH agonist, blood samples were taken at 11 A.M. and 6 P.M.
The seric concentrations of LH and FSH were measured by radioimmuno-logic dosages with double antibodies and the antibodies for measuring LH and FSH were furnished by the National Pituitary Agency of N.I.H. in Bethesda, Md. The seric concentrations of steroids was measured by radioimmuno-logic dosages in which one ml of serum was extracted with ether and the steroids were separated on a LH-20 column before measuring with radioimmuno-logic dosages. The radioimmuno-logic dosage results were determined by a program derived from model II of Rodbard et al [Second Karolinska Symposium on Research Methods in Reproductive Endocrinology, Diezfalusky Editor, Copenhague (1970), p. 79-103]. The statistical significance was determined by the "multiple level test" of Duncan-Kramer [Kramer, Biometrics, Vol 12 (1956), p. 307]. The results are shown in the FIGS. 1A to 1H filed herewith.

[2] = system: testicular steriodogenosis; experiment: Inhibitory activity on testicular steroidogenesis in a patient with prostate cancer; assay type: in vivo, human; details: intranasal 500 μg twice a day
Source text: The results are reported in the graphs of sheet 2 of the Figures.

CCNC(=O)[C@@H]1CCCN1C(=O)[C@H](CCCNC(=N)N)NC(=O)[C@H](CC(C)C)NC(=O)[C@@H](COC(C)(C)C)NC(=O)[C@H](Cc1ccc(O)cc1)NC(=O)[C@H](CO)NC(=O)[C@H](Cc1c[nH]c2ccccc12)NC(=O)[C@H](Cc1c[nH]cn1)NC(=O)[C@@H]1CCC(=O)N1 [D Ser (Tbu)^6 of Gly^10 LH-RH ethylamide]
level of seric progesterone, course (ovarian steroidogenosis; 2 cycles of treatment (FIGS. 4A-4F)): accelerated diminution | level of progesterone, % of control values (pretreatment cycles = 100%) (ovarian steroidogenosis; 12 cycles of post-treatment): 99% | level of progesterone, % of control values (pretreatment cycles = 100%) (ovarian steroidogenosis; 12 cycles of treatment): 46% | level of progesterone reduced as compared to the controls (ovarian steroidogenosis; all 12 treatment cycles (FIGS. 5A-5L), scale 13 to 127%): 46% | reduction of seric levels of progesterone as compared to the controls (ovarian steroidogenosis; first of the 2 cycles of treatment, intranasal 500 μg at 8 A.M. and 5 P.M. of one day): 13% | reduction of seric levels of progesterone as compared to the controls (ovarian steroidogenosis; second of the 2 cycles of treatment): 34% | duration of the lessening of cyclicity and drop of seric levels of testicular steroids [1]: 3 days | androgenic steroids, plasmatic level [2]: diminution | level of testosterone ([2]; two weeks of treatment): stabilized at a very low level
